Data: US6280725A, “Compositions and methods for inhibiting the growth of fungi” (Lipton, division of Conopco, Inc., priority 2000, dated 2001)

Assays:
Format in all cases: cell-based
[1] = tested on: Saccharomyces cerevisiae wild type strain SU-50; assay: Growth inhibition (growth curves) of wild type yeast SU-50; settings: for effect on growth of SU50: 25 mM sugar with 25 μM MB21, 100 cells per ml, vs reference and MB21 alone, effect if any, FIG. 5a
Method: (§1) For examples 2, and 4-9 grow-curves were recorded at 25° C. using a microbiology growth reader (Bioscreen C, ex Labsystems). For example 3, growth curve was determined as turbidity, measured by hand at a wave length of 660 nm (OD 660).
a) Saccharomyces cerevisiae strain SU-50 was cultivated in YEPD medium, supplemented with 2% glucose.
b) Growth curves were obtained with the strain SU-50. The cells (about 10 per ml) were cultured in YEPD at 25° C. in the presence or absence of β-gentiobiose or pustulan fragments and MB-21, by using a 24 well plate at room temperature with continuous shaking on a micro-titre plate shaker (mark 4) or a microbiology growth reader (Bioscreen C).
Three YEPD media were prepared, one without MB21, the other YEPD media contained 10 μM MB21 and 20 μM MB21, respectively. To these media β-gentiobiose was added in concentrations of 0, 50, 100 and 200 mM. The yeast strain SU50 was inoculated in these media in a concentration of 10 cells per ml, and cultivated in a 24 well plate at 25° C. Samples were taken from a 24 well plate at regular time intervals, diluted sixty times with distilled water and measured at 660 nm to construct the growth curves.
This example illustrates a relationship between the length of the β-(1,6)-glucan fragments and their effectiveness in competition.
(§2) In this example, three strains are grown in various media in the fashion of example 3, with the exception of being inoculated in the media in a concentration of 100 cells per ml. The sugars used are all comparatives: laminaribiose (β-1,3)-linked D-glucose), sucrose (having a 1,2 link), and sorbitol.
In this example, strain SU 50 was grown three media (see table 2) in the fashion of example 3, with the exception of being inoculated in the media in a concentration of 100 cells per ml.

[2] = tested on: Zygosaccharomyces bailii ZB (NCYC 563); assay: Growth curves of strain ZB; settings: 200 mM sugar with 6 μM MB21, 100 cells per ml, vs reference and MB21 alone; effect if any; FIG. 5b
Method: as §1
c) Zygosaccharomyces bailii ZB: as SU-50 above.
as §2
In this example, strain ZB was grown three media (see table 3) in the fashion of example 3, with the exception of being inoculated in the media in a concentration of 100 cells per ml.

[3] = tested on: Zygosaccharomyces bailii G1; assay: Growth curves / relative inhibition of strain G1; settings: 200 mM sugar with 6 μM MB21, 100 cells per ml, vs reference and MB21 alone; effect if any; FIG. 5c
Method: as §1
d) Zygosaccharomyces bailii G1: as SU-50 above.
as §2
In this example, strain G1 was grown three media (see table 4) in the fashion of example 3, with the exception of being inoculated in the media in a concentration of 100 cells per ml.
In this example, strain G1 was grown in the fashion of example 3 (with the exception of being inoculated in the media in a concentration of 100 cells per ml) in the presence of 6 μM MB21 and 50 mM of a β-(1,6)-glucan. Experiments were done with short-chain β-(1,6)-glucan of variable chain length.

[4] = tested on: Saccharomyces cerevisiae strain SU52-pUR5801; assay: Cell wall protein release test (α-galactosidase-CWP2p secretion into medium); settings: FIG. 1
Method: b) Saccharomyces cerevisiae strain SU52-pUR5801 was cultivated in Difco yeast nitrogen base (YNB), supplemented with 2% glucose and 0.004% histidine. After the culture had reached the late log-phase, the cells were cultivated further (a 10% inoculum) in YEPD medium, consisting of 1% Difco yeast extract, 2% Bacto-peptone, supplemented with 0.5% glucose and 5% galactose.
a) Saccharomyces cerevisiae strain SU52-pUR 5801 was grown in YNB and YEPD media, at 30° C. with shaking at 225 rpm in an orbital incubator until a OD (660 nm) between 5 and 6 was reached. In parallel experiments several concentrations of β-gentiobiose or pustulan fragments were included in the media. After cultivation, the media were separated from the cells by centrifugation (10.000×g for 15 min at 4° C.). The media were then filtered using […] filters. Secretion of α-(-galactosidase-CWP2p was assessed by measuring α-(-galactosidase enzyme activity in the media (see further on). […]
β-Gentiobiose was dissolved in YEPD media supplemented with 5% galactose, in concentrations of 10, 50 and 100 mM respectively. […] The enzyme activity of the fusion protein CWP2-α-galactosidase was measured as described in the α-galactosidase assay.

## OC[C@H]1O[C@@H](O[C@H]2[C@H](O)[C@@H](CO)OC(O)[C@@H]2O)[C@H](O)[C@@H](O)[C@@H]1O (stereo partly shown) [laminaribiose]
[1]
  effect on growth of SU50: stimulating effect

## OC[C@@H](O)[C@@H](O)[C@H](O)[C@@H](O)CO [sorbitol]
[1]
  effect on growth of SU50: stimulating effect
[2]
  effect on growth of ZB: stimulating effect
[3]
  effect on growth of G1: stimulating effect

## OC[C@H]1O[C@@](CO)(O[C@H]2O[C@H](CO)[C@@H](O)[C@H](O)[C@H]2O)[C@@H](O)[C@@H]1O [sucrose]
[1]
  effect on growth of SU50: stimulating effect
[2]
  effect on growth of ZB: stimulating effect
[3]
  effect on growth of G1: stimulating effect

## OC[C@H]1O[C@@H](OC[C@H]2O[C@@H](O)[C@H](O)[C@@H](O)[C@@H]2O)[C@H](O)[C@@H](O)[C@@H]1O [β-gentiobiose, 6-O-β-glucopyranosyl-β-D-glucose]
[4]; at least up to 100 mM β-gentiobiose
  relationship between concentration and secretion of the fusion construct: linear relationship
[4]; β-gentiobiose 10, 50 and 100 mM in YEPD with 5% galactose, 30° C., 18 hours
  secretion (release) of the fusion protein α-galactosidase-CW2p from the cell wall: concentration dependent
[1]; β-gentiobiose as such (0, 50, 100, 200 mM, no MB21), 10 cells per ml, 25° C., OD 660, FIG. 3
  influence on the growth of SU-50: no influence
